Patent US8889854B2, “C-17 bicyclic amines of triterpenoids with HIV maturation inhibitory activity” (priority 2012, dated 2014)

Tested on: recombinant NL4-3 virus (Renilla luciferase in nef, Gag P373S; NLRluc)
Assay: HIV Cell Culture Assay (luciferase reporter virus in MT-2 cells)
Format: cell-based
Details: Renilla, NL43, MT-2 cells infected for 4-5 days with NLRluc recombinants, luciferase activity
Protocol: MT-2 cells and 293T cells were obtained from the NIH AIDS Research and Reference Reagent Program. MT-2 cells were propagated in RPMI 1640 media supplemented with 10% heat inactivated fetal bovine serum, […]. The 293T cells were propagated in DMEM media supplemented with 10% heat inactivated fetal bovine serum (FBS), 100 units/mL penicillin G and 100 μg/mL streptomycin. The proviral DNA clone of NL4-3 was obtained from the NIH AIDS Research and Reference Reagent Program. A recombinant NL4-3 virus, in which a section of the nef gene from NL4-3 was replaced with the Renilla luciferase gene, was used as a reference virus. In addition, residue Gag P373 was converted to P373S. Briefly, the recombinant virus was prepared by transfection of the altered proviral clone of NL4-3. Transfections were performed in 293T cells using LipofectAMINE PLUS from Invitrogen (Carlsbad, Calif.), according to manufacturer's instruction. The virus was titered in MT-2 cells using luciferase enzyme activity as a marker. Luciferase was quantitated using the Dual Luciferase kit from Promega (Madison, Wis.), with modifications to the manufacturer's protocol. The diluted Passive Lysis solution was pre-mixed with the re-suspended Luciferase Assay Reagent and the re-suspended Stop & Glo Substrate (2:1:1 ratio). Fifty (50) μL of the mixture was added to each aspirated well on assay plates and luciferase activity was measured immediately on a Wallac TriLux (Perkin-Elmer). Antiviral activities of inhibitors toward the recombinant virus were quantified by measuring luciferase activity in cells infected for 4-5 days with NLRluc recombinants in the presence serial dilutions of the inhibitor. Table 1 is the key for the data in Table 2.

| SMILES | EC50 (reported as group A/B) | EC50 |
| --- | --- | --- |
| C=C(C)[C@@H]1CC[C@]2(NCCN3C[C@@H]4C[C@H]3CN4S(C)(=O)=O)CC[C@]3(C)[C@H](CC[C@@H]4[C@@]5(C)CC=C(c6ccc(C(=O)O)cc6)C(C)(C)[C@@H]5CC[C@]43C)[C@@H]12 [Example 11, 4-((1R,3aS,5aR,5bR,7aR,11aS,11bR,13aR,13bR)-5a,5b,8,8,11a-pentamethyl-3a-((2-((1S,4S)-5-(methylsulfonyl)-2,5-diazabicyclo[2.2.1]heptan-2-yl)ethyl)amino)-1-(prop-1-en-2-yl)-2,3,3a,4,5,5a,5b,6,7,7a,8,11,11a,11b,12,13,13a,13b-octadecahydro-1H-cyclopenta[a]chrysen-9-yl)benzoic acid] | < 100 nM | – |
| CC(C)[C@@H]1CC[C@]2(NCCN3C[C@@H]4C[C@H]3CN4S(C)(=O)=O)CC[C@]3(C)[C@H](CC[C@@H]4[C@@]5(C)CC=C(c6ccc(C(=O)O)cc6)C(C)(C)[C@@H]5CC[C@]43C)[C@@H]12 [Example 12, 4-((1S,3aS,5aR,5bR,7aR,11aS,11bR,13aR,13bR)-1-isopropyl-5a,5b,8,8,11a-pentamethyl-3a-((2-((1S,4S)-5-(methylsulfonyl)-2,5-diazabicyclo[2.2.1]heptan-2-yl)ethyl)amino)-2,3,3a,4,5,5a,5b,6,7,7a,8,11,11a,11b,12,13,13a,13b-octadecahydro-1H-cyclopenta[a]chrysen-9-yl)benzoic acid] | < 100 nM | – |
| C=C(C)[C@@H]1CC[C@]2(NCCN3C[C@H]4CC[C@@H](C3)N4C(=O)OC(C)(C)C)CC[C@]3(C)[C@H](CC[C@@H]4[C@@]5(C)CC=C(c6ccc(C(=O)O)cc6)C(C)(C)[C@@H]5CC[C@]43C)[C@@H]12 [Example 13, 4-((1R,3aS,5aR,5bR,7aR,11aS,11bR,13aR,13bR)-3a-((2-((1R,5S)-8-(tert-butoxycarbonyl)-3,8-diazabicyclo[3.2.1]octan-3-yl)ethyl)amino)-5a,5b,8,8,11a-pentamethyl-1-(prop-1-en-2-yl)-2,3,3a,4,5,5a,5b,6,7,7a,8,11,11a,11b,12,13,13a,13b-octadecahydro-1H-cyclopenta[a]chrysen-9-yl)benzoic acid] | > 100 nM | – |
| C=C(C)[C@@H]1CC[C@]2(NCCN3C[C@H]4C[C@@H](C3)N4S(C)(=O)=O)CC[C@]3(C)[C@H](CC[C@@H]4[C@@]5(C)CC=C(c6ccc(C(=O)O)cc6)C(C)(C)[C@@H]5CC[C@]43C)[C@@H]12 [Example 14, 4-((1R,3aS,5aR,5bR,7aR,11aS,11bR,13aR,13bR)-5a,5b,8,8,11a-pentamethyl-3a-((2-((1R,5S)-6-(methylsulfonyl)-3,6-diazabicyclo[3.1.1]heptan-3-yl)ethyl)amino)-1-(prop-1-en-2-yl)-2,3,3a,4,5,5a,5b,6,7,7a,8,11,11a,11b,12,13,13a,13b-octadecahydro-1H-cyclopenta[a]chrysen-9-yl)benzoic acid] | – | 3.24 nM |
| C=C(C)[C@@H]1CC[C@]2(NCCN3CCC4(C3)CN(S(C)(=O)=O)C4)CC[C@]3(C)[C@H](CC[C@@H]4[C@@]5(C)CC=C(c6ccc(C(=O)O)cc6)C(C)(C)[C@@H]5CC[C@]43C)[C@@H]12 [Example 15, 4-((1R,3aS,5aR,5bR,7aR,11aS,11bR,13aR,13bR)-5a,5b,8,8,11a-pentamethyl-3a-((2-(2-(methylsulfonyl)-2,6-diazaspiro[3.4]octan-6-yl)ethyl)amino)-1-(prop-1-en-2-yl)-2,3,3a,4,5,5a,5b,6,7,7a,8,11,11a,11b,12,13,13a,13b-octadecahydro-1H-cyclopenta[a]chrysen-9-yl)benzoic acid] | – | 1.65 nM |
